Assay results published in patent publication US4777269A, “7-Phenylacetic acid-4-alkyl-coumarinyl amides useful in fluorometric determination of the activity of hydrolases” (European Atomic Energy Community, priority 1986, dated 1988).
In brackets after ≈: the same amount, converted by molar mass. Where two headings read alike, the source gives them in different places.

Experiments:
penicillin G-acylase = penicillin G-acylase (Escherichia coli, UniProt P06875); assay: Kinetic study of enzymatic cleavage of the coumarinyl amides (Lineweafer-Burg-plot), fluorometric test; format: biochemical; conditions: enzyme concentration constant, substrate concentration varied, 50 mM K-P-buffer, 5% ethanol
Chain of penicillin G-acylase (P06875 290-846): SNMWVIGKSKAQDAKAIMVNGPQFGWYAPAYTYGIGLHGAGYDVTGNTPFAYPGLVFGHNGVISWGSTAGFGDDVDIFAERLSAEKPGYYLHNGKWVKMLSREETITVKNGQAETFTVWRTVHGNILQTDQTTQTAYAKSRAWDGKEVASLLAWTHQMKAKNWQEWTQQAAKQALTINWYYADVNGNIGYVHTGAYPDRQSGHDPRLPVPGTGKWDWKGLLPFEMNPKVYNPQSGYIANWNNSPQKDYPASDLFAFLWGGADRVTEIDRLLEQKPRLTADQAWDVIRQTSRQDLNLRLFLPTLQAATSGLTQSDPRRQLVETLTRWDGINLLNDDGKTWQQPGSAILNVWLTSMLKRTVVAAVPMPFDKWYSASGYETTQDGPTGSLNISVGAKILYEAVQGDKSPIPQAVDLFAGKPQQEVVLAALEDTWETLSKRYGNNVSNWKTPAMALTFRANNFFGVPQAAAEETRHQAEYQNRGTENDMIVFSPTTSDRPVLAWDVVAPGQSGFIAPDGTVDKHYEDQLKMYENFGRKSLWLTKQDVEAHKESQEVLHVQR
Chain of penicillin G-acylase (P06875 27-235): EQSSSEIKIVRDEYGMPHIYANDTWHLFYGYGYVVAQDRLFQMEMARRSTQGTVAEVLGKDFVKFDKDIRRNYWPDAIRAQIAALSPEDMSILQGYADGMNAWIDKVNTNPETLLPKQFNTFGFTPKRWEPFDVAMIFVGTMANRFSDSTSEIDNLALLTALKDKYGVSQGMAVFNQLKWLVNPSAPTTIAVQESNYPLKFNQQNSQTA
Method: During the tests it has been observed repeatedly that the conversion rate of the reaction decreases at higher substrate concentrations. Therefore, research work for the determination of the kinetic parameters (Vmax and KM) of this reaction system had to be carried out.
The enzyme concentration in the test was kept constant and the substrate concentration (50 mM K-P-buffer 5% ethanol for both substrates) was varied.
The test mixture contains 3 μg/ml of the coumarinyl derivative as obtained in example 1, dissolved in 50 mM of a potassium-phosphate-buffer (pH 8, 5% ethanol).
At first a solution of the coumarinyl derivative in ethanol is prepared and diluted with the phosphate buffer according to the concentration values. 3 ml of the mixture are measured in a fluorescence cuvette in a spectral fluorometer (λ=440 nm for PMC; λ=495 nm for PFC) in regard to the background signal.
The reaction is started (while stirring) by the addition of 10 to 100 μl of the sample and followed. The activity of the enzyme can be estimated from the linear initial increase of the fluorescence/time-diagram after a corresponding calibration has been made.

[1] = Solubility of the substrates in aqueous solution / buffer; format: physicochemical
Method: The values for the PFC test are easily reproduceable since the solution of the substrate (5% ethanol) can be prepared more accurately. For the preparation of solutions of the substrate without ethanol about 24 hours are need to dissolve 1 mg of the substrate in 1 l of the buffer. The fluorometric test is particularly suited for the determination of low activities of penicillin G-acylase.
The yields obtained in the preparation of the 7-phenylacetic acid-4-alkyl-coumarinyl amides of the invention, in particular of PFC and PMC, were in the range of from 50 to 80% at a high product purity (NMR, IR). […] However, this problem may be overcome by dissolving the substrate at first in pure ethanol and then diluting it with the corresponding buffer to a mixture with 5% ethanol. In this manner concentrations of 6 mg/l can be achieved.

[2] = aqueous solution, aqueous solutions, without ethanol, read-out: solubility in aqueous solutions
[3] = buffer with 5% ethanol, organic solvent or mixture, buffer mixture with 5% ethanol, read-out: achievable concentration after dissolving in pure ethanol and diluting with buffer

SMILES | kinetic behaviour at higher substrate concentrations (penicillin G-acylase) | solubility [1, 2] | solubility [1, 3]
O=C(Cc1ccccc1)Nc1ccc2c(C(F)(F)F)cc(=O)oc2c1 [PFC, 7-phenyl-acetic acid-4-trifluoromethyl-coumarinyl amide] | substrate inhibition | < 1 µg/mL | 6 µg/mL (≈ 17.3 µM)
Cc1cc(=O)oc2cc(NC(=O)Cc3ccccc3)ccc12 [PMC, 7-phenylacetic acid-4-methylcoumarinyl amide] | substrate inhibition | < 1 µg/mL | 6 µg/mL (≈ 20.5 µM)
